Source: ChEMBL document CHEMBL4507274 (2021)

Legend:
[1] = molecular target: Bone morphogenetic protein receptor type-1A (Homo sapiens) (UniProt P36894); details: Compound concentration 100.0 nM
[2] = molecular target: Calcium/calmodulin-dependent protein kinase type II subunit delta (Homo sapiens) (UniProt Q13557); details: Compound concentration 100.0 nM
[3] = molecular target: Cyclin-dependent kinase 11B (Homo sapiens) (UniProt P21127); details: Compound concentration 100.0 nM
[4] = molecular target: Cyclin-dependent kinase 13 (Homo sapiens) (UniProt Q14004); details: Compound concentration 100.0 nM
[5] = molecular target: Dual specificity protein kinase CLK1 (Homo sapiens) (UniProt P49759); details: Compound concentration 100.0 nM
Dual specificity protein kinase CLK1 (Homo sapiens), sequence (P49759 whole entry, looked up): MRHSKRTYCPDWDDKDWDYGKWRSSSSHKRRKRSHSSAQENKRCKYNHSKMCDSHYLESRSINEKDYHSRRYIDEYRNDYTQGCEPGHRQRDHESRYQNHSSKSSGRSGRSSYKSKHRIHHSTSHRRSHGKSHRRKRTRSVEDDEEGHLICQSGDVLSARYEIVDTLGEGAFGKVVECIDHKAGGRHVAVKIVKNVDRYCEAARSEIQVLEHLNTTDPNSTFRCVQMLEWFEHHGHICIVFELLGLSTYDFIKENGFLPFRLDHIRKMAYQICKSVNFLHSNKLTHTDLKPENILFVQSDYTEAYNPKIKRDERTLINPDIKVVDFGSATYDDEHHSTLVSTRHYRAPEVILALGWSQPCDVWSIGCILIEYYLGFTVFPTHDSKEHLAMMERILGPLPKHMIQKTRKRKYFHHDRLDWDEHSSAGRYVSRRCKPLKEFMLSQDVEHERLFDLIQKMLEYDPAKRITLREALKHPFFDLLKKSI

[6] = molecular target: Dual specificity protein kinase CLK4 (Homo sapiens) (UniProt Q9HAZ1); details: Compound concentration 100.0 nM
[7] = molecular target: Casein kinase I isoform alpha (Homo sapiens) (UniProt P48729); details: Compound concentration 100.0 nM
Casein kinase I isoform alpha (Homo sapiens), sequence (P48729 2-337 limits assumed): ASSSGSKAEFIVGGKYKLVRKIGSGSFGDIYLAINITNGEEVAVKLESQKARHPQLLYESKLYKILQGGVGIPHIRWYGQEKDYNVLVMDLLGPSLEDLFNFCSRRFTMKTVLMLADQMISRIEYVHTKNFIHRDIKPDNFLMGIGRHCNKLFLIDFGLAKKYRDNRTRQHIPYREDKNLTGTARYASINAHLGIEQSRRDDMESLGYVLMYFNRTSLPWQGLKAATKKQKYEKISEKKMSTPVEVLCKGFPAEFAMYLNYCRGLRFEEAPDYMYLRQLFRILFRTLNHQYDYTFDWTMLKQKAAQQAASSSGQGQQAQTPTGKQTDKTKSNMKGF

[8] = molecular target: Casein kinase II subunit alpha' (Homo sapiens) (UniProt P19784); details: Compound concentration 100.0 nM
Casein kinase II subunit alpha' (Homo sapiens), sequence (P19784 whole entry, looked up): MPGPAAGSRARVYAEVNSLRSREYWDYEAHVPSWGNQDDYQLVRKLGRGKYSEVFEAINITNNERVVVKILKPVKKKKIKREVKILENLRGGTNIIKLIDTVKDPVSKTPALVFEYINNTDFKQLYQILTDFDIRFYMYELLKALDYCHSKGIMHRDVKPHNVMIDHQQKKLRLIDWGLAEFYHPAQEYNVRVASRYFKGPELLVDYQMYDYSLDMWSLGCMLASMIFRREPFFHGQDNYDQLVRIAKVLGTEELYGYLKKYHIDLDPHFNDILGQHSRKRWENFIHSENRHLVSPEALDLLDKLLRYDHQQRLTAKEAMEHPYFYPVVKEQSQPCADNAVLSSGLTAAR

[9] = molecular target: Dual specificity mitogen-activated protein kinase kinase 2 (Homo sapiens) (UniProt P36507); details: Compound concentration 100.0 nM
[10] = molecular target: Dual specificity mitogen-activated protein kinase kinase 3 (Homo sapiens) (UniProt P46734); details: Compound concentration 100.0 nM
Dual specificity mitogen-activated protein kinase kinase 3 (Homo sapiens), sequence (P46734 whole entry): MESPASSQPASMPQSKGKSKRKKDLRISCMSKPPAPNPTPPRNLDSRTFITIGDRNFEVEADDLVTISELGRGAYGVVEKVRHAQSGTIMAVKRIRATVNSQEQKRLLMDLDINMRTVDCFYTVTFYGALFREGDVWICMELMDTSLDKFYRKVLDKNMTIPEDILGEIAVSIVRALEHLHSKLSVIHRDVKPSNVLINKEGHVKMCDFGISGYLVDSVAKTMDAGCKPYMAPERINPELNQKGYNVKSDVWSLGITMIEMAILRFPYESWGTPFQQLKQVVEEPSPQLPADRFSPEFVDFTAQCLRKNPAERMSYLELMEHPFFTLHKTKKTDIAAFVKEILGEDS

[11] = molecular target: T1, Dual specificity mitogen-activated protein kinase kinase 6 (Homo sapiens) (UniProt P52564); details: Compound concentration 100.0 nM
T1 sequence (whole entry): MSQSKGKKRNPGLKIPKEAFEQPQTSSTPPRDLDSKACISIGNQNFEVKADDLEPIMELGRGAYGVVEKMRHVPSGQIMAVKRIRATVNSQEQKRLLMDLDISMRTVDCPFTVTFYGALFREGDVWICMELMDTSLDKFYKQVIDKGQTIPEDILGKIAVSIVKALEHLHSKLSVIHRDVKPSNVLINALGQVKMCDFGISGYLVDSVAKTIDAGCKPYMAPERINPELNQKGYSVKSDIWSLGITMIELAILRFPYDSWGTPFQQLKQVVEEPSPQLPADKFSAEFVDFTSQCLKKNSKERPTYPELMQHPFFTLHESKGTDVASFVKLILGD

[12] = molecular target: Myosin light chain kinase (Homo sapiens) (UniProt Q32MK0); details: Compound concentration 100.0 nM
Myosin light chain kinase (Homo sapiens), sequence (Q32MK0 whole entry): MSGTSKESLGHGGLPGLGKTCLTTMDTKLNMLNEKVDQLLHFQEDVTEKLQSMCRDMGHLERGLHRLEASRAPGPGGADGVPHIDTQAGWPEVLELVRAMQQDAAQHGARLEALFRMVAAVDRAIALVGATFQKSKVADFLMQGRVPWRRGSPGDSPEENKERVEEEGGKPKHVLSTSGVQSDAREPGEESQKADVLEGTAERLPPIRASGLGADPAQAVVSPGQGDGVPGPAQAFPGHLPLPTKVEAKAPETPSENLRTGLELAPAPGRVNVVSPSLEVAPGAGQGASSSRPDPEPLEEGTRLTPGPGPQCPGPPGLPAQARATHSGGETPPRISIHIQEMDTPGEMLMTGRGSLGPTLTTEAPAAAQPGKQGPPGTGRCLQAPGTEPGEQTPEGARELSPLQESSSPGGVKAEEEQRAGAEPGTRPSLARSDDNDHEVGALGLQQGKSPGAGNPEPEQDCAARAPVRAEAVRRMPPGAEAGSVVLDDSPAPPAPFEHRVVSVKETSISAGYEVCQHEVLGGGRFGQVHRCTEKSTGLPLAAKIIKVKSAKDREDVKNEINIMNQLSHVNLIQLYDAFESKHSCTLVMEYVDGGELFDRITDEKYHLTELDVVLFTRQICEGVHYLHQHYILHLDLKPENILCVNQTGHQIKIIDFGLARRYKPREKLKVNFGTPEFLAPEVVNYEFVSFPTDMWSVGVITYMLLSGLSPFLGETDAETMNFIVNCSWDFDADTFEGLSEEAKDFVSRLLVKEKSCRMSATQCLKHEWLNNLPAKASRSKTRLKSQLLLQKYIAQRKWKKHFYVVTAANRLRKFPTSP

[13] = molecular target: Serine/threonine-protein kinase Nek3 (Homo sapiens) (UniProt P51956); details: Compound concentration 100.0 nM
[14] = molecular target: Cyclin-dependent kinase 15 (Homo sapiens) (UniProt Q96Q40); details: Compound concentration 100.0 nM
[15] = molecular target: Phosphatidylinositol 4,5-bisphosphate 3-kinase catalytic subunit alpha isoform (Homo sapiens) (UniProt P42336); details: Compound concentration 100.0 nM
Phosphatidylinositol 4,5-bisphosphate 3-kinase catalytic subunit alpha isoform (Homo sapiens), sequence (P42336 whole entry, canonical isoform): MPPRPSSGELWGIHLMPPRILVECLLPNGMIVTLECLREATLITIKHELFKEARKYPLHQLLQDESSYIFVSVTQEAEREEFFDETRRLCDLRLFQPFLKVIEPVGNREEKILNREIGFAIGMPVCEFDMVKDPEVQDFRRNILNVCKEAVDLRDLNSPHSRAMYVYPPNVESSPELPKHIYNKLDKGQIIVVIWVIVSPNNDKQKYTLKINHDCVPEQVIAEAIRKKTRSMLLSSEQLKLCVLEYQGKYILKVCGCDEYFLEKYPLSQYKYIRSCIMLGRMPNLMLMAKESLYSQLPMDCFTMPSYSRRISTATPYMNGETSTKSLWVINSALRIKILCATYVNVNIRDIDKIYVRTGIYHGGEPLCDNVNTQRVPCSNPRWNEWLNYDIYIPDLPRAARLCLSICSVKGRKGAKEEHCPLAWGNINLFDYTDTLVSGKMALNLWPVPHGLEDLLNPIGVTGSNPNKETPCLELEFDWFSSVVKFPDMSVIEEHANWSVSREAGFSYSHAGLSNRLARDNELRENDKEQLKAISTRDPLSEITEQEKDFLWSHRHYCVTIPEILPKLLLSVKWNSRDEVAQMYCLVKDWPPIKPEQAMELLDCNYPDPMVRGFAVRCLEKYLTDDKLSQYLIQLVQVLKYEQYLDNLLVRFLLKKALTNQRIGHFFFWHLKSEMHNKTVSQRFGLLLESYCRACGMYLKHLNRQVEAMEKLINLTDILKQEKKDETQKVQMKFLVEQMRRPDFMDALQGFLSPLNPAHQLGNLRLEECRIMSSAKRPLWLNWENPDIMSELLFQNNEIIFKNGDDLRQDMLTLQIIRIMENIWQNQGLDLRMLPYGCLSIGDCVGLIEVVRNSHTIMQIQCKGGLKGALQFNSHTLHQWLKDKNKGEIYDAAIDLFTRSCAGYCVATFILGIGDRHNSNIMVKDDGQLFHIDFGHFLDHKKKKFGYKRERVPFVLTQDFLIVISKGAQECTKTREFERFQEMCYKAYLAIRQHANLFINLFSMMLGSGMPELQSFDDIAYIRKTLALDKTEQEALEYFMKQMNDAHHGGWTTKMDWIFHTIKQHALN

[16] = molecular target: T2, Serine/threonine-protein kinase D1 (Homo sapiens) (UniProt Q15139); details: Compound concentration 100.0 nM
T2 sequence (whole entry): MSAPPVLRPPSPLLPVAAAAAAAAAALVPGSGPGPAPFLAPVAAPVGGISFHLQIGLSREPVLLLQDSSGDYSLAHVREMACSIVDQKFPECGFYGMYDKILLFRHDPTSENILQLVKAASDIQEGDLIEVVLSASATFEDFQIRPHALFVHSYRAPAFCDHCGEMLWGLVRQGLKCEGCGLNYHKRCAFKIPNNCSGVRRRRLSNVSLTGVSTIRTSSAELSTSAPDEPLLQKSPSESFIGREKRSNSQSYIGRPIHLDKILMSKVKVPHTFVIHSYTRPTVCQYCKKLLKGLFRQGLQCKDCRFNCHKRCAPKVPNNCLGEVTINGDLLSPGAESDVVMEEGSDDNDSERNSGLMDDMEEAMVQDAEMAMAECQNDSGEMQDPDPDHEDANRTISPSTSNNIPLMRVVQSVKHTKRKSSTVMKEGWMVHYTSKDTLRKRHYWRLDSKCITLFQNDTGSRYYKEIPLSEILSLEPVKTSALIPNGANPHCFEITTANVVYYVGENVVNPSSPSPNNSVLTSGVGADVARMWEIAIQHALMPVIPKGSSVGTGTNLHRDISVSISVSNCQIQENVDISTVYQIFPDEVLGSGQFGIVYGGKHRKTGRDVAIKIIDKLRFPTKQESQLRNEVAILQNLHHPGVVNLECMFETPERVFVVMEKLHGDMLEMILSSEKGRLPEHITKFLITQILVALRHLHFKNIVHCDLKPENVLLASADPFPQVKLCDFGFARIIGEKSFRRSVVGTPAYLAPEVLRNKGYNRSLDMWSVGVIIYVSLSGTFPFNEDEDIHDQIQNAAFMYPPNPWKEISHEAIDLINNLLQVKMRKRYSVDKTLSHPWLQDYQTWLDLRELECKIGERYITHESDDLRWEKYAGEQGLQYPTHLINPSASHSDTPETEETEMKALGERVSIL

[17] = molecular target: Proto-oncogene tyrosine-protein kinase receptor Ret (Homo sapiens) (UniProt P07949); details: Compound concentration 100.0 nM
[18] = tested on: Proto-oncogene tyrosine-protein kinase receptor Ret (Homo sapiens), P07949 [M918T]; details: Compound concentration 100.0 nM
[19] = molecular target: Ribosomal protein S6 kinase alpha-5 (Homo sapiens) (UniProt O75582); details: Compound concentration 100.0 nM
[20] = molecular target: Serine/threonine-protein kinase SBK1 (Homo sapiens) (UniProt Q52WX2); details: Compound concentration 100.0 nM
Serine/threonine-protein kinase SBK1 (Homo sapiens), sequence (Q52WX2 whole entry): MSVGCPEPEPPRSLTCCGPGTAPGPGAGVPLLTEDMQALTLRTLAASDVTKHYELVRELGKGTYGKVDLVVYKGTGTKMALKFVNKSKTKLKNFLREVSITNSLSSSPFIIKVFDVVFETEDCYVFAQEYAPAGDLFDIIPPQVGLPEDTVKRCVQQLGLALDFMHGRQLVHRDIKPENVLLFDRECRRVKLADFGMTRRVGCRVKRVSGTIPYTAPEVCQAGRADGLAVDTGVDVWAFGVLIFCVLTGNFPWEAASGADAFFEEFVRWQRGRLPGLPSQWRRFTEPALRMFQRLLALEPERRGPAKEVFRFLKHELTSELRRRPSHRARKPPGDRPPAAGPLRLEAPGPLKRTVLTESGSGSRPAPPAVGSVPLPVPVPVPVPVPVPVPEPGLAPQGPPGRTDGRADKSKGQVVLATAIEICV

[21] = molecular target: NUAK family SNF1-like kinase 2 (Homo sapiens) (UniProt Q9H093); details: Compound concentration 100.0 nM
NUAK family SNF1-like kinase 2 (Homo sapiens), sequence (Q9H093 whole entry): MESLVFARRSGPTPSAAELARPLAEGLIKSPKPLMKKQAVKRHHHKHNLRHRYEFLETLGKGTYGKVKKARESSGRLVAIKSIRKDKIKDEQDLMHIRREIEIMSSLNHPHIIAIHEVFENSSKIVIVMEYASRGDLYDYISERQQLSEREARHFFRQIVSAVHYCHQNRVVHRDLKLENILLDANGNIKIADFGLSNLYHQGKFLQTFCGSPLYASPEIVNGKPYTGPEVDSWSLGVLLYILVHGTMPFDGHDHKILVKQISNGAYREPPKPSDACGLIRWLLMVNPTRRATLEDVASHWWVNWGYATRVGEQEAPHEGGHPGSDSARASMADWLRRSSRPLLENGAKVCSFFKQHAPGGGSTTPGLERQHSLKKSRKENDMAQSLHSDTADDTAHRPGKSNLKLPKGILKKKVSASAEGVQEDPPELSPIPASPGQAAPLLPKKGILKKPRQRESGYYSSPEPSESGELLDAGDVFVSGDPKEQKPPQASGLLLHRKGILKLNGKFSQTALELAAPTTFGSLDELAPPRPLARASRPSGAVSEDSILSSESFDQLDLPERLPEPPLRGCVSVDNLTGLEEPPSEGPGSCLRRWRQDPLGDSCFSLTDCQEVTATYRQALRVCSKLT

[22] = molecular target: Serine/threonine-protein kinase tousled-like 1 (Homo sapiens) (UniProt Q9UKI8); details: Compound concentration 100.0 nM
[23] = molecular target: Serine/threonine-protein kinase 25 (Homo sapiens) (UniProt O00506); details: Compound concentration 100.0 nM
[24] = molecular target: 5-hydroxytryptamine receptor 1D (Homo sapiens) (UniProt P28221); details: Compound concentration 10.0 uM
[25] = molecular target: Histamine H1 receptor (Homo sapiens) (UniProt P35367); details: Compound concentration 10.0 uM
[26] = molecular target: Alpha-1B adrenergic receptor (Homo sapiens) (UniProt P35368); details: Compound concentration 10.0 uM
[27] = molecular target: Beta-1 adrenergic receptor (Homo sapiens) (UniProt P08588); details: Compound concentration 10.0 uM
[28] = molecular target: Muscarinic acetylcholine receptor M2 (Homo sapiens) (UniProt P08172); details: Compound concentration 10.0 uM
Muscarinic acetylcholine receptor M2 (Homo sapiens), sequence (P08172 whole entry): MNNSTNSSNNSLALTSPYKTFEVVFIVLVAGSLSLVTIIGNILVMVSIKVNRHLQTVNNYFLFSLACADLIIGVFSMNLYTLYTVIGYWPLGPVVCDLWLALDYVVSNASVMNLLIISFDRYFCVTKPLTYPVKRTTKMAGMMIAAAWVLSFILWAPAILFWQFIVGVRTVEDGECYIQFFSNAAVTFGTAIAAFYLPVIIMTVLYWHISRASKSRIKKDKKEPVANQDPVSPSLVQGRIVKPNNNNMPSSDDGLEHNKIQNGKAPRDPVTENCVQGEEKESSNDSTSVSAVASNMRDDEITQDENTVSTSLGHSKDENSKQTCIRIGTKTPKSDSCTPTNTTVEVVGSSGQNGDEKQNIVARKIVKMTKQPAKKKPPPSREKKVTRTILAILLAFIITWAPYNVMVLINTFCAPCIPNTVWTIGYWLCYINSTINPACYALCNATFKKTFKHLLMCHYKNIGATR

Cc1c[nH]c2nccc(Oc3c(F)cc(Nc4cc(Cl)nc(N)n4)cc3F)c12 [BAY-549]
inactive: residual activity [1] 85% | residual activity [2] 90% | residual activity [3] 80% | residual activity [4] 73% | residual activity [5] 83% | residual activity [6] 86% | residual activity [7] 96% | residual activity [8] 86% | residual activity [9] 91% | residual activity [10] 100% | residual activity [11] 99% | residual activity [12] 91% | residual activity [13] 75% | residual activity [14] 76% | residual activity [15] 83% | residual activity [16] 55% | residual activity [17] 97% | residual activity [18] 100% | residual activity [19] 100% | residual activity [20] 94% | residual activity [21] 85% | residual activity [22] 100% | residual activity [23] 100% | inhibition [24] 45% | inhibition [25] -0.06% | inhibition [26] 17% | inhibition [27] 6.86% | inhibition [28] 7.41%

Cn1cc(Cl)c2c(Oc3c(F)cc(Nc4cc(Cl)nc(N)n4)cc3F)ccnc21 [BAY-4900]
inactive: residual activity [1] 95% | residual activity [2] 95% | residual activity [3] 100% | residual activity [4] 77% | residual activity [5] 96% | residual activity [6] 100% | residual activity [7] 93% | residual activity [8] 89% | residual activity [9] 100% | residual activity [10] 94% | residual activity [11] 100% | residual activity [12] 94% | residual activity [13] 91% | residual activity [14] 94% | residual activity [15] 79% | residual activity [16] 74% | residual activity [17] 99% | residual activity [18] 92% | residual activity [19] 100% | residual activity [20] 97% | residual activity [21] 85% | residual activity [22] 100% | residual activity [23] 100% | inhibition [24] -5.84% | inhibition [25] 3.19% | inhibition [26] 18.3% | inhibition [27] -2.51% | inhibition [28] 0.85%
